The record followed here is US5382579A, “Triazolo-1,4-diazepine derivatives and their use in pharmaceuticals” (Eisai Co., Ltd., priority 1988, dated 1995).

pIC50: −log10 of the molar value.

For one test, the target named is T1, PAF receptor (Homo sapiens, UniProt P25105).
T1 construct: Platelets are obtained from healthy men according to the usual method; endogenous in cells; host or cells: platelets from healthy men
T1 sequence (P25105 whole entry): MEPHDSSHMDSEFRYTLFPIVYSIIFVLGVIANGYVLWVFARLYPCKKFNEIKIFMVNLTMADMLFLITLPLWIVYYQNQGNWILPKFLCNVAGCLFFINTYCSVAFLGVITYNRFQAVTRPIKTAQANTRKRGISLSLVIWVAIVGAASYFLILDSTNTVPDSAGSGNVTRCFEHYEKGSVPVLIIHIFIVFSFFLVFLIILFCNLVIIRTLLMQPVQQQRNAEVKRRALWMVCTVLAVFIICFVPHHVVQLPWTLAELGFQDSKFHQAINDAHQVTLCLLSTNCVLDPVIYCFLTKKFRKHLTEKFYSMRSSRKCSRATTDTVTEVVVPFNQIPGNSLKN
Put plainly: PAF Receptor Binding Assay to the Human Platelet (3H-PAF). Conditions: PAF receptor binding assay IC50, human platelets, 3H-PAF 0.6-1 nM, 37° C., pH 7.0. As to the method:
Platelets are obtained from healthy men according to the usual method and suspended at a concentration of 10^8 platelets/460 μl in a binding buffer (10 mM phosphate-buffers saline (pH 7.0), with 0.1% (w/V) BSA and 0.9 mM CaCl2). Platelets (10^8) in 460 μl of the buffer were added to polypropylene tubes and preincubated with test compounds (20 μl), after vortexing, for 6 min at 37° C. Subsequently, 20 μl of a binding buffer solution of ^3 H-PAF (final ^3 H-PAF concentration 0.6-1 nM) was added to the tubes, which were incubated for 6 minutes. The binding reaction was stopped by adding of 3 ml of an ice-cold washing solution (saline containing 0.1% (w/v) BSA). Platelets were isolated by vacuum filtration on glass filters (Whatman GF/C). After drying the glass filter, radioactivity on the glass filter was measured in scintilator with a liquid scintillation counter.
The inhibition percent is calculated according to the following equation and the value of IC is determined by interpolation from the figure. [formula] binding: radioactivity of binding in the absence of cold PAF or test compounds
non-specific binding: radioactivity of binding in the presence of 10^-5 M PAF
non-specific binding: radioactivity (dpm) after the incubation with 10^-5 M of cold PAF.
`Cc1nnc2n1-c1sc3c(c1C(c1ccccc1Cl)=NC2)CCN(C(=O)C1CCC1)C3`: the pIC50 (in general, the negative decadic logarithm of the IC50, by convention in mol/L) was 8.74.

`Cc1nnc2n1-c1sc3c(c1C(c1ccccc1Cl)=NC2)CCN(C(=O)OC(C)(C)C#N)C3` had a pIC50 of 8.48.

With `Cc1nnc2n1-c1sc3c(c1C(c1ccccc1Cl)=NC2C)CCN(C(=O)C1CC1)C3` (single isomer, unassigned) [drawing 95], the negative logarithm of the IC50 (pIC50) is 8.55.

Turning to `Cc1nnc2n1-c1sc3c(c1C(c1ccccc1Cl)=NC2)CCN(C(=O)OCCCC#N)C3` [drawing 82], the negative logarithm of the IC50 (pIC50) is 8.57.

`CCC#CCOC(=O)N1CCc2c(sc3c2C(c2ccccc2Cl)=NCc2nnc(C)n2-3)C1`: the pIC50 is 9.13.

In turn, `Cc1nnc2n1-c1sc3c(c1C(c1ccccc1Cl)=NC2)CCN(C(=O)OCCCC#N)C3` [drawing 89] gave a negative-log IC50 (pIC50) of 8.36.

Take `C#CCCOC(=O)N1CCc2c(sc3c2C(c2ccccc2Cl)=NCc2nnc(C)n2-3)C1` [drawing 83]: the pIC50 is 8.46.

Regarding `Cc1nnc2n1-c1sc3c(c1C(c1ccccc1Cl)=NC2C)CCN(C(=O)C1CC1)C3` (single isomer, unassigned) [drawing 94], the pIC50 was 6.38.

`Cc1nnc2n1-c1sc3c(c1C(c1ccccc1Cl)=NC2)CCN(C(=O)C#Cc1ccccc1)C3` showed a pIC50 of 9.25.

The compound `C#CCCCCOC(=O)N1CCc2c(sc3c2C(c2ccccc2Cl)=NCc2nnc(C)n2-3)C1` gave a pIC50 of 9.66.

Still in this test, the particulars now being: human platelets, 3H-PAF 0.6-1 nM, 37° C., pH 7.0; read-out: PAF receptor binding assay IC50.
Take `C#CCCOC(=O)N1CCc2c(sc3c2C(c2ccccc2Cl)=NC(C)c2nnc(C)n2-3)C1` (single isomer, unassigned) [drawing 93]: the pIC50 is 9.47.

On to `Cc1nnc2n1-c1sc3c(c1C(c1ccccc1Cl)=NC2C)CCN(C(=O)OC(C)(C)C#N)C3` (single isomer, unassigned) [drawing 90], for which the pIC50 was 6.30.

In the case of `C#CCCOC(=O)N1CCc2c(sc3c2C(c2ccccc2Cl)=NCc2nnc(C)n2-3)C1` [drawing 88], the negative-log IC50 (pIC50) was 8.82.

Take `C#CCCOC(=O)N1CCc2c(sc3c2C(c2ccccc2Cl)=NC(C)c2nnc(C)n2-3)C1` (single isomer, unassigned) [drawing 92]: the pIC50 is 7.09.

On to `Cc1nnc2n1-c1sc3c(c1C(c1ccccc1Cl)=NC2C)CCN(C(=O)OC(C)(C)C#N)C3` (single isomer, unassigned) [drawing 91], for which the pIC50 was 8.51.
